Test results taken from EP0315467A2, “Pentamidine salts useful in the treatment and prophylaxis of pneumocystis carinii pneumonia” (LyphoMed, Inc., priority 1987, dated 1989).
Counter-ions that a name gives are not always drawn.

What was measured:
[1] = Solubility in water of pentamidine salts; assay type: physicochemical; conditions: for Solubility in H₂O: Table I
[2] = background statement on the prior art; cited from earlier work

SMILES | Solubility in H₂O [1] [mg/mL] | further results
N=C(N)c1ccc(OCCCCCOc2ccc(C(=N)N)cc2)cc1 [Pentamidine Acetate] | 17.0 | –
N=C(N)c1ccc(OCCCCCOc2ccc(C(=N)N)cc2)cc1 [Pentamidine Borate] | 6.9 | –
N=C(N)c1ccc(OCCCCCOc2ccc(C(=N)N)cc2)cc1 [Pentamidine Citrate] | 0.6 | –
N=C(N)c1ccc(OCCCCCOc2ccc(C(=N)N)cc2)cc1 [Pentamidine Gluconate] | 114.8 | solubility ([1]; bound stated in the text): > 100 mg/mL
N=C(N)c1ccc(OCCCCCOc2ccc(C(=N)N)cc2)cc1 [Pentamidine Hydrochloride, reference compound] | – | solubility in water (in words) [2]: substantially water insoluble; Solubility in H₂O ([1]; Hydrochloride): 14.5 mg/mL
N=C(N)c1ccc(OCCCCCOc2ccc(C(=N)N)cc2)cc1 [Pentamidine Lactate] | 100.3 | water solubility ([1]; bound stated in the text): greater than 100 mg/mL
N=C(N)c1ccc(OCCCCCOc2ccc(C(=N)N)cc2)cc1 [Pentamidine Nitrate] | 1.8 | –
N=C(N)c1ccc(OCCCCCOc2ccc(C(=N)N)cc2)cc1 [Pentamidine Phosphate] | 16.8 | –
N=C(N)c1ccc(OCCCCCOc2ccc(C(=N)N)cc2)cc1 [Pentamidine Sulfate] | 1.4 | –
N=C(N)c1ccc(OCCCCCOc2ccc(C(=N)N)cc2)cc1 [Pentamidine Tartarate] | 3.4 | –
